Laboratory results: paper PMC12292233, “Effects of 2-Hydroxypropyl-β-Cyclodextrin on the Antioxidant Efficiency of Some Gallic Acid Derivatives in Soybean Oil-in-Water Emulsions” (Antioxidants, 2025)

Columns and labels:
[1] = Kinetics of lipid oxidation (conjugated dienes, AOCS Ti 1a 64) in soybean oil-in-water emulsions; details: T = 60 °C; for relative efficiency order in inhibiting lipid peroxidation: 1:9 O/W emulsion, time to 0.5% increase in conjugated dienes; for relative efficiency order in inhibiting lipid peroxidation / effect of addition of HPCD on oxidative stability of the emulsion loaded with the antioxidant: ΦI = 0.008, [AO] = 0.1 mM
Method: The 1:9 oil-in-water emulsions were prepared by mixing 1 mL of stripped soybean oil and 9 mL of buffered aqueous solution (citric–citrate buffer 0.04 M pH 3.0) and different amounts of the surfactant Tween 20 (ΦI = Vsurfactant/Vemulsion = 0.005 − 0.04). Emulsions prepared without antioxidants were used as controls. In the others, the antioxidants GA, PG, OG, and LG were added to the aqueous (GA, PG) or oil (OG, LG) phases. The mixtures were stirred for at least 60 s at 20000 rpm at room temperature by employing a high-speed rotor (Polytron PT 1600 E, Kinematica, Fisher Scientific S.L., Madrid, Spain). All emulsions were prepared in triplicate and reported values are average.
The kinetics of the lipid peroxidation of soybean oil-in-water emulsions were monitored by determining the variation in the formation of conjugated dienes (CDs) with time according to the AOCS Official Method Ti 1a 64 in both the absence (control) and the presence of antioxidants (stoichiometric [AO] = 10^−4 M). Briefly, 1:9 O/W emulsions (ΦI = 0.008) were transferred to 25 mL screw-capped erlenmeyer flasks and were placed in an orbital shaker (Incubator Heidolph 1000 orbital stirrer, Heidolph Scientific Products GmbH, Schwabach, Germany) equipped with a Heidolph thermostat 1010 to the control temperature at 148 rpm and T = 60 °C (±1 °C) in the dark.
Aliquots (25 µL) of the emulsions were removed periodically and diluted to 10 mL with 2-propanol, and the absorbance was measured at λ = 233 nm. The percentage of conjugated dienes (%CD) was determined, as described in the literature, by employing Equation (18), where Coil stands for the concentration of soybean oil in the total volume of the emulsion (density for soybean oil = 0.93 g/mL; T = 25 °C).(18) %CD=1.0769A233nm/Coil(g/L)
The relative efficiency of the antioxidants under the different experimental conditions was quantified by measuring the time needed to increase the CD content by 0.5% (dashed line in Figure 7). We have previously shown that these values are equal to those for the induction period determined from the intersection point of the two linear segments defining the inhibited and uninhibited (propagation) steps [28].

[2] = Distribution of antioxidants in intact soybean oil-in-water emulsions (16-ArN2+ chemical probe, pseudophase kinetic model); format: physicochemical; details: for PO^I, partition constant oil-interfacial / PW^I, partition constant water-interfacial / PW^I (app), partition constant water-interfacial: soybean oil-in-water emulsion, Tween 20, T = 25.0 °C; for order of percentage of AO in the interfacial region: at any particular ΦI value
Method: Emulsions contain three regions (oil, interface, and aqueous) with distinct solvent properties, and antioxidants are partitioned between them to different extents depending on their hydrophobicity (Figure 4). To prevent disturbance of the existing equilibria, the partition constants were evaluated in the intact emulsions using a well-established chemical method based on the reaction between a chemical probe, 4-hexadecylbenzenediazonium (16-ArN2^+), and the antioxidants. Kinetic results are then analyzed using a pseudophase kinetic model.
The method, along with its assumptions, advantages, and limitations, are described in detail elsewhere; only the relevant parts will be summarized here. 16-ArN2^+ is specifically designed as a water-insoluble chemical probe due to its long hydrophobic tail but with an ionic head group that makes it oil-insoluble. Thus, the reactive (-N2^+) group is located exclusively in the interfacial region. The rate of its reaction with the antioxidant depends on the effective concentration of the antioxidant in that region, which, in turn, depends on its distribution (Figure 4). The partition constants of the antioxidant between the water interfacial (PW^I) and the oil interfacial (PO^I) regions are described by Equations (10) and (11), respectively, where the magnitudes within parenthesis indicate the local concentrations given in moles per liter for a specific region.(10) PWI=(AOI)/(AOW) (11) POI=(AOI)/(AOO)
By employing the formalism of the pseudophase kinetic model, mathematical equations describing the relationships between the measured rate constant (kobs) for the reaction involving 16-ArN2^+ and the AOs and the partition constants can be derived, as was shown in our previous published work. Equation (12) was employed for the AOs, which are distributed between the three regions. Equation (12) can be simplified to Equation (13) for those antioxidants that only partition between the oil and the interfacial regions.(12) kobs=AOTkIPWIPOI/ΦOPWI+ΦIPWIPOI+ΦWPOI (13) kobs=kIAOTPOI/ΦIPOI+ΦO
With the partition constants known, the percentage of AOs at the interface can be determined, and the effective concentration of AOs in each region can be determined straightforwardly by employing Equations (14)–(16).(14) %AOI=100ΦIPWIPOI/ΦOPWI+ΦIPWIPOI+ΦWPOI (15) %AOI=100ΦIPOI/ΦIPOI+ΦO (16) (AOI)=%AOIAOT/ΦI
The application of the pseudophase kinetic model described above requires the determination of the variation in the observed rate constant (kobs) for the reaction between the chemical probe (16ArN2^+) and the antioxidants with the surfactant concentration. Because emulsions are opaque, a special protocol based on a derivatization method has been used to determine the kobs values. Briefly, unreacted arenediazonium ions were rapidly quenched by employing a suitable coupling agent (N-(1-naphthyl)ethylenediammine, NED), leading to the formation of a stable azo dye (Figure 5). The absorbance of the azo dye formed is proportional to the concentration of the unreacted 16ArN2^+ present in the reaction mixture. Further information regarding the experimental procedure is provided in a previous publication.
The kobs values were determined by fitting the absorbance–time data pairs to the pseudo-first-order kinetic equation (Equation (17), where At, A∞, and A0 stand for the absorbance values at time t, infinitive time, and zero time, respectively).(17) lnAt−A∞=lnA0−A∞−kobst
The distribution of the antioxidants in the intact emulsions was assessed through the analysis of the variation in the observed rate constants (kobs) for the reaction between the chemical probe 16-ArN2^+ and the AOs with the emulsifier volume fraction ΦI (Figure 9). Details of this method can be found elsewhere. For all AOs, kobs values decrease asymptotically 3–6 times upon increasing ΦI from ΦI = 0.005 to ΦI = 0.039. […]

[3] = Water solubility (statement); format: physicochemical
[4] = design: method as in PMID 34037013, PMID 25180889, PMID 28248497; details: based on oxygen uptake; ratio oleic:linoleic:linolenic; ref [25],[26],[27]; cited from earlier work
[5] = DPPH radical scavenging activity of gallates in absence and presence of HPCD; format: biochemical; details: values given as 10^6 × EC50, T = 25 ± 1 °C, reaction time 3600 s, aqueous citric acid/citrate (0.04 M, pH 3)-methanol 50:50 v/v
Method: The radical scavenging activity of gallates was obtained by employing the free radical 2,2-diphenyl-1-pycrilhydrazyl DPPH^• and by following the method described by García-Perez et al.. The absorbance decrease in DPPH^• (λ= 515 nm) was monitored in the absence and the presence of CD for different concentrations of AOs ([AO] = […]) in an aqueous–methanolic solution (5:5, v/v) at T = 25 °C. […] The radical scavenging activity was measured in terms of the EC50 values, defined as the gallate concentration required to decrease DPPH^• radicals by half.

[6] = Partition constant in soybean oil-water binary mixtures; format: physicochemical; details: T = 25.0 °C
Method: Table 2 Partition constants values in soybean oil–water binary mixtures (PW^O) and in soybean oil-in-water emulsions (PW^I and PO^I) for gallates in the absence and the presence of HP-CD; T = 25.0 °C.

Row | Compound | PO^I, partition constant oil-interfacial ([2]; [HPCD] = 0) | PO^I, partition constant oil-interfacial ([2]; [HPCD] = 0.013 M) | order of percentage of AO in the interfacial region [2] | relative efficiency order in inhibiting lipid peroxidation [1] | effect of addition of HPCD on oxidative stability of the emulsion loaded with the antioxidant ([1]; [HP-CD] = 0.013 M) | relative oxidation rate [4] | EC50 ([5]; 0 M HPCD) [µM] | EC50 ([5]; 1.1·10^−2 M HPCD) [µM] | other results
1 | 2-Hydroxypropyl-β-cyclodextrin [HPCD] | – | – | – | – | – | – | – | – | effect on the kinetics of oxidation in absence of antioxidants ([1]; 1:9 soybean emulsions without antioxidant, [HP-CD] = 0.013 M): no effect
2 | CCCCCCCCCCCCOC(=O)c1cc(O)c(O)c(O)c1 [LG, lauryl gallate] | 27 ± 9 | 25 ± 2 | %BGI > %PGI > %LGI ≈ %OGI | LG ≈ OG < PG < < BG | negligible effect | – | – | – | solubility in water [3]: water insoluble
3 | CCCCC/C=C\C/C=C\CCCCCCCC(=O)O [linoleic, linoleic acid] | – | – | – | – | – | ~70 | – | – | –
4 | CC/C=C\C/C=C\C/C=C\CCCCCCCC(=O)O [linolenic, linolenic acid] | – | – | – | – | – | ~100 | – | – | –
5 | CCCCCCCC/C=C\CCCCCCCC(=O)O [oleic, oleic acid] | – | – | – | – | – | approximately 1 | – | – | –
6 | O=C(O)c1cc(O)c(O)c(O)c1 [GA, gallic acid] | – | – | – | – | – | – | 8.36 ± 0.28 | 7.84 ± 0.08 | –
7 | CCCCCCCCOC(=O)c1cc(O)c(O)c(O)c1 [OG, octyl gallate] | 26 ± 7 | 25 ± 5 | %BGI > %PGI > %LGI ≈ %OGI | LG ≈ OG < PG < < BG | negligible effect | – | 9.02 ± 1.05 | 8.27 ± 0.2 | solubility in water [3]: water insoluble
8 | CCCCOC(=O)c1cc(O)c(O)c(O)c1 [BG, butyl gallate] | 238 ± 8 | 174 ± 9 | %BGI > %PGI > %LGI ≈ %OGI | LG ≈ OG < PG < < BG | decreases the oxidative stability slightly | – | 6.02 ± 0.03 | 5.35 ± 0.04 | PW^O, partition constant [6]: 3.25 ± 0.03; PW^I, partition constant water-interfacial ([2]; [HPCD] = 0): 772 ± 33; PW^I (app), partition constant water-interfacial ([2]; [HPCD] = 0.013 M): 565 ± 9; relative efficiency order in inhibiting lipid peroxidation ([1]; listed as butyl gallate): highest antioxidant efficiency
9 | CCCOC(=O)c1cc(O)c(O)c(O)c1 [PG, Propyl gallate] | 450 ± 26 | 371 ± 15 | %BGI > %PGI > %LGI ≈ %OGI | LG ≈ OG < PG < < BG | decreases the oxidative stability slightly | – | 6.09 ± 0.12 | 5.57 ± 0.01 | PW^O, partition constant [6]: 0.85 ± 0.01; PW^I, partition constant water-interfacial ([2]; [HPCD] = 0): 382 ± 18; PW^I (app), partition constant water-interfacial ([2]; [HPCD] = 0.013 M): 315 ± 14
